From EP0959065B1, “Pyrethroid compound and composition for controlling pest containing the same” (priority 1998, dated 1999)

Columns and labels:
[1] = Calculation of safety factor (rat LD50 / housefly LD50); conditions: Toxicity to rat (LD50 value) / Insecticidal activity against housefly (LD50 value)
Description: The safety factor was calculated from the insecticidal activity against housefly and the toxicity to rat according to the following equation. […] Safety factor = Toxicity to rat (LD50 value)] / [Insecticidal activity against housefly (LD50 value)] [formula]

[2] = system: houseflies (Musca domestica); test: Mosquito coil fumigation test in glass chamber (knock-down and lethal activity); type: in vivo; design: key to Knocking-down activity: Excellent: All the insects were knocked down or dead (the total in the two replications); Good: 1 to 2 insects were not knocked down or dead (ditto); Mediocre: 3 to 4 insects were not knocked down or dead (ditto); Bad: 5 or more insects were not knocked down or dead (ditto); conditions: two replications; for Knocking-down activity: 0.3 g coil burnt 30 seconds in 0.34 m^3 chamber, knocked-down counted at ten minutes, 10 adult houseflies; for Lethal activity: insects recovered at 25 minutes, dead and alive counted in 24 hours
From the text: A base material for mosquito coil (obtained by stirring a 4:3:3 mixture of Tabu powder, Pyrethrum marc and wood powder, adding water thereto, thoroughly kneading the resulting mixture, and molding and drying the kneaded mixture) was uniformly impregnated with a solution of the present compound in acetone so that the material contains a predetermined amount of the compound. The resultant base material was air-dried to obtain a mosquito coil.
Ten adult houseflies (Musca domestica) (male/ female = 5/5) were released in a glass chamber (70cm cube, capacity: 0.34 m^3). 0.3 Gram of a mosquito coil containing the present compound prepared according to the procedure described above was set on a holder in the center of the bottom of the chamber, ignited at one end thereof, and taken out of the chamber after 30 seconds of combustion. The knocked-down houseflies were counted in ten minutes after the setting of the coil. In 25 minutes after the setting of the coil, the test insects were recovered into a cup for recovery and given water and diet. The dead and alive were counted in 24 hours. Two replications of the test were carried out. The same test procedure was repeated for 4-methyl-2,3,5,6-tetrafluorobenzyl (1R)-cis-3-(2,2-dichlorovinyl)-2,2-dimethylcyclopropanecarboxylate (hereinafter referred to as reference compound A) and for a mixture of 50% by weight of 4-methyl-2,3,5,6-tetrafluorobenzyl (1RS)-cis-3-(2,2-dichlorovinyl)-2,2-dimethylcyclopropanecarboxylate and 50% by weight of 4-methyl-2,3,5,6-tetrafluorobenzyl (1RS)-trans-3-(2,2-dichlorovinyl)-2,2-dimethylcyclopropanecarboxylate (this mixture is hereinafter referred to as reference compound B). […] In the table, the knocking-down activity and the lethal activity are indicated according to the following criterion: • Excellent: All the insects were knocked down or dead (the total in the two replications). • Good: 1 to 2 insects were not knocked down or dead (ditto). • Mediocre: 3 to 4 insects were not knocked down or dead (ditto). • Bad: 5 or more insects were not knocked down or dead (ditto).

female adult houseflies = test: Insecticidal activity against housefly, topical application of acetone dilutions on the nota; type: in vivo; conditions: Musca domestica, 0.5 µl acetone dilution per insect on the nota, mortality after 24 hours
Description: The present compound was diluted with acetone to concentrations of 100, 50, 25, 12.5 and 6.25 ppm. Each of reference compounds A and B was also diluted with acetone to concentrations of 400, 200, 100, 50 and 25 ppm. Each of the dilutions thus prepared was applied on the nota of female adult houseflies in a volume of 0.5 µl per insect. The insects were given water and diet. After 24 hours, the dead and alive were counted for mortality. From the mortality, LD50 (mg/kg) value was determined.

[3] = Toxicity to rat, administration of corn oil dilutions; conditions: in vivo, male rats, dilution in corn oil, 10 ml/kg, mortality after 7 days
Description: Each of the present compound and reference compounds A and B was diluted with corn oil to predetermined concentrations. Each of the dilutions thus prepared was administered to male rats in an amount of 10 ml/kg. The rats were given water and diet. After 7 days, the dead and alive were counted for mortality. From the mortality, LD50 (mg/kg) value was determined.

| Molecule | Safety factor [1] | Knocking-down activity ([2]; concentration 0.5 %W/W) | Lethal activity ([2]; concentration 0.5 %W/W) | Knocking-down activity ([2]; concentration 1.0 %W/W) | Lethal activity ([2]; concentration 1.0 %W/W) | LD50 (female adult houseflies) | LD50 at 7 days [3] |
| --- | --- | --- | --- | --- | --- | --- | --- |
| mixture of 50% by weight of 4-methyl-2,3,5,6-tetrafluorobenzyl (1RS)-cis-3-(2,2-dichlorovinyl)-2,2-dimethylcyclopropanecarboxylate and 50% by weight of 4-methyl-2,3,5,6-tetrafluorobenzyl (1RS)-trans-3-(2,2-dichlorovinyl)-2,2-dimethylcyclopropanecarboxylate [Reference compound B] | <35 | Bad (5 or more insects were not knocked down or dead (ditto)) | Bad (5 or more insects were not knocked down or dead (ditto)) | Mediocre (3 to 4 insects were not knocked down or dead (ditto)) | Bad (5 or more insects were not knocked down or dead (ditto)) |  |  |
| Cc1c(F)c(F)c(COC(=O)[C@@H]2[C@H](C=C(Cl)Cl)C2(C)C)c(F)c1F [Reference compound A, 4-methyl-2,3,5,6-tetrafluorobenzyl (1R)-cis-3-(2,2-dichlorovinyl)-2,2-dimethylcyclopropanecarboxylate] | <36 | Bad (5 or more insects were not knocked down or dead (ditto)) | Bad (5 or more insects were not knocked down or dead (ditto)) |  |  | 2.8 mg/kg | < 100 mg/kg |
| Cc1c(F)c(F)c(COC(=O)[C@@H]2[C@@H](C=C(Cl)Cl)C2(C)C)c(F)c1F [Present compound, 4-methyl-2,3,5,6-tetrafluorobenzyl (1R)-trans-3-(2,2-dichlorovinyl)-2,2-dimethylcyclopropanecarboxylate] | 320 | Excellent | Good (1 to 2 insects were not knocked down or dead (ditto)) |  |  | 0.93 mg/kg | 300 mg/kg |
